Measurements as given in PMC5355235, “FLT3 activating mutations display differential sensitivity to multiple tyrosine kinase inhibitors” (Oncotarget, 2017).
Substitutions are numbered along the chain they refer to.

What was measured:
Assay type in all cases: cell-based
FLT3 D835Y = target: T1, FLT3 D835Y (Homo sapiens, UniProt P36888, D835Y); experiment: FLT3 autophosphorylation, immunoprecipitation/Western blot, D835Y; conditions: FLT3 D835Y cells, highest concentrations tested, 1 h
T1 construct: expressed in transfected cells; host or cells: BaF3
T1 sequence (P36888 27-993 D835Y): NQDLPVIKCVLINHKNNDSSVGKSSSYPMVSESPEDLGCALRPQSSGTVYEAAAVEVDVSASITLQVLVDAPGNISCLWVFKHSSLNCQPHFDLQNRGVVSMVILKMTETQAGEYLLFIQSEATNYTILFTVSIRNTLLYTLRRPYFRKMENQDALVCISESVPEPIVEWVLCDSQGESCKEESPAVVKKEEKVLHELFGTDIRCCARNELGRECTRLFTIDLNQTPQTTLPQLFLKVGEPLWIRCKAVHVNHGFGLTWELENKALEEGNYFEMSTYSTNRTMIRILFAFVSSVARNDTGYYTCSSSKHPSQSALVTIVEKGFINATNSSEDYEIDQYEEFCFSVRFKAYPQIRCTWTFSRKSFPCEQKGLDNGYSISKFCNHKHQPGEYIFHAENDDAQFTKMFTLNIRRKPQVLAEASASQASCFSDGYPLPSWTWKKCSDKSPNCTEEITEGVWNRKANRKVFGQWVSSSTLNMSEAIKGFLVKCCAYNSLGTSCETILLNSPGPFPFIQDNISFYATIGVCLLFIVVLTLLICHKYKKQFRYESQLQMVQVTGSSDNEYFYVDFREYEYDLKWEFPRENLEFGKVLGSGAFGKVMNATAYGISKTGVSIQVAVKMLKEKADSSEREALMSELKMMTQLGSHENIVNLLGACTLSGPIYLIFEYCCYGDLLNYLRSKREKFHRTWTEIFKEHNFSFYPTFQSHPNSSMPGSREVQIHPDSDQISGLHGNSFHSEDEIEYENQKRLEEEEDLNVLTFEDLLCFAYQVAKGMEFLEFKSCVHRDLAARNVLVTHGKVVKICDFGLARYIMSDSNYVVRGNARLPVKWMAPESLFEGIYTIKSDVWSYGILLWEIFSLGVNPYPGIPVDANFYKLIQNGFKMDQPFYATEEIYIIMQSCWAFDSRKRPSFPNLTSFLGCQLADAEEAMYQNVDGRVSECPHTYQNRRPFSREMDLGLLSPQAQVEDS
Description: Activated FLT3 expression was measured by performing immunoprecipitation, SDS-PAGE and Western blotting as previously described. Specifically, 10^7 cells were washed in medium and treated with inhibitor for 1 h followed by stimulation with 25 ng/ml of FLT3 ligand for 15 minutes where indicated. Cells were washed twice with ice-cold PBS and lysed in 300 µl of NP-40 lysis buffer (150 mM NaCl, 20 mM TrisHCl (pH7.4), 10% glycerol, 1% NP-40, 10 mM EDTA, 100 mM NaF) with 2 mM Na3VO4 and protease inhibitors (Complete Tablets, Roche, Mannheim, Germany) at 4°C for 30 m. Cell lysate was harvested by centrifugation at 13,000 × g for 30 m at 4°C. FLT3 S-18 antibody was incubated with 500 µg lysate overnight at 4°C followed by immunoprecipitation with protein A-agarose beads for 2 h. Beads were washed once in Tris buffered saline with 1% Tween-20 (TBST) and twice in TBS. Samples were boiled in sodium dodecyl sulfate (SDS) sample buffer prior to separating in a 8% SDS-polyacrylamide gel (SDS-PAGE). Proteins were transferred to a polyvinyl diflouride (PVDF) membrane (Millipore, Bedford, MA, USA) and detected by 4G10 phosphotyrosine antibody and anti-FLT3 S-18 antibody. FLT3 was visualized using the Odyssey Infra Red Imaging System from Li-Cor (Lincoln, NE, USA) using AlexaFluor 680 goat anti-mouse and AlexaFluor 800 goat anti-rabbit antibodies. […]

wild-type FLT3 = target: T2, wild-type FLT3 (Homo sapiens, UniProt P36888); experiment: Wild-type FLT3 autophosphorylation in FL-stimulated BaF3/WT-FLT3 cells; conditions: TKI 1 h, then 25 ng/ml human FLT3 ligand 15 min
T2 construct: expressed in transfected cells; host or cells: BaF3
T2 sequence (P36888 27-993): T1 sequence (P36888 27-993 D835Y) with Y809D
Description: Figure 3 Inhibition of wild-type FLT3 signaling pathways by FLT3 TKI BaF3/WT-FLT3 cells were treated with FLT3 TKI at the indicated concentrations for 1 h at 37°C then stimulated with 25ng/ml of human FLT3 ligand for 15 minutes, followed by immunoprecipitation for FLT3, SDS-PAGE and WB for FLT3 and phospho-FLT3 (PFLT3).
Activated FLT3 expression was measured by performing immunoprecipitation, SDS-PAGE and Western blotting as previously described. […] Specifically, 10^7 cells were washed in medium and treated with inhibitor for 1 h followed by stimulation with 25 ng/ml of FLT3 ligand for 15 minutes where indicated. Cells were washed twice with ice-cold PBS and lysed in 300 µl of NP-40 lysis buffer (150 mM NaCl, 20 mM TrisHCl (pH7.4), 10% glycerol, 1% NP-40, 10 mM EDTA, 100 mM NaF) with 2 mM Na3VO4 and protease inhibitors (Complete Tablets, Roche, Mannheim, Germany) at 4°C for 30 m. Cell lysate was harvested by centrifugation at 13,000 × g for 30 m at 4°C. FLT3 S-18 antibody was incubated with 500 µg lysate overnight at 4°C followed by immunoprecipitation with protein A-agarose beads for 2 h. Beads were washed once in Tris buffered saline with 1% Tween-20 (TBST) and twice in TBS. […] Proteins were transferred to a polyvinyl diflouride (PVDF) membrane (Millipore, Bedford, MA, USA) and detected by 4G10 phosphotyrosine antibody and anti-FLT3 S-18 antibody. […]

FLT3/ITD = FLT3/ITD autophosphorylation and signaling pathways, Western blot; conditions: FLT3/ITD cells, 1 h, concentration-dependent
Description: Activated FLT3 expression was measured by performing immunoprecipitation, SDS-PAGE and Western blotting as previously described. Specifically, 10^7 cells were washed in medium and treated with inhibitor for 1 h followed by stimulation with 25 ng/ml of FLT3 ligand for 15 minutes where indicated. Cells were washed twice with ice-cold PBS and lysed in 300 µl of NP-40 lysis buffer (150 mM NaCl, 20 mM TrisHCl (pH7.4), 10% glycerol, 1% NP-40, 10 mM EDTA, 100 mM NaF) with 2 mM Na3VO4 and protease inhibitors (Complete Tablets, Roche, Mannheim, Germany) at 4°C for 30 m. Cell lysate was harvested by centrifugation at 13,000 × g for 30 m at 4°C. FLT3 S-18 antibody was incubated with 500 µg lysate overnight at 4°C followed by immunoprecipitation with protein A-agarose beads for 2 h. Beads were washed once in Tris buffered saline with 1% Tween-20 (TBST) and twice in TBS. Samples were boiled in sodium dodecyl sulfate (SDS) sample buffer prior to separating in a 8% SDS-polyacrylamide gel (SDS-PAGE). Proteins were transferred to a polyvinyl diflouride (PVDF) membrane (Millipore, Bedford, MA, USA) and detected by 4G10 phosphotyrosine antibody and anti-FLT3 S-18 antibody. FLT3 was visualized using the Odyssey Infra Red Imaging System from Li-Cor (Lincoln, NE, USA) using AlexaFluor 680 goat anti-mouse and AlexaFluor 800 goat anti-rabbit antibodies. Phosphorylation of the FLT3 downstream signaling mediators, STAT5, AKT and MAP kinase was investigated by loading 50 µg of whole cell lysate and probing with the indicated antibodies. The membrane was washed and incubated in goat anti-rabbit secondary antibody conjugated to horseradish peroxidase followed by enhanced chemiluminescence (ECL). The membrane was subsequently stripped in 200 mM glycine buffer, pH 2.5 with 0.1% Tween-20 and reprobed for STAT5, AKT and MAP kinase expression using the respective antibodies.

Inhibition of FLT3 autophosphorylation (FLT3 D835Y): markedly reduced or absent inhibition
IC50 (wild-type FLT3): 500 nM
SMILES: Cc1cc2ncc(-c3ccccc3)nc2cc1C [AG1295]
Inhibition of FLT3 autophosphorylation and phosphorylation of STAT5, AKT and Map kinase (FLT3/ITD): inhibited FLT3 autophosphorylation
